Like-named read-outs stand apart in the source and are kept apart here.
Legend:
[1] = test system: Colorectal carcinoma Colon cancer (HCT-116); experiment: cells; assay type: cell-based, human; conditions: for IC50: Homo sapiens; for relative activity for colon carcinoma cells (HCT-116), in words: among all compounds
Description: (§1) Finally, all the studied phosphonate compounds have moderate to weak cytotoxicity activity on the normal cell WI-38.
(§2) The in vitro antitumor activity of the compounds under study in this research was investigated cell growth using the MTT assay, [31]. The human tumor cell lines that used to evaluate the activity are Human lung fibroblast (WI38), Colorectal carcinoma Colon cancer (HCT-116) and Epdermoid Carcinoma (HEP2). The MTT assay is a standard colorimetric assay that is used to measure cell growth. It is used to determine cytotoxicity of potential medicinal agents and other toxic materials. Detailed procedures for the MTT assay method is presented in the supporting information (Sect. S2). […]
(§3) Cytotoxicity Assay (Section S2)
(§4) The cell lines Human lung fibroblast (WI38), Colorectal carcinoma Colon cancer (HCT-116) and Epdermoid Carcinoma (HEP2) were used to determine the inhibitory effects of compounds on cell growth using the MTT assay. This colorimetric assay is based on the conversion of the yellow tetrazolium bromide (MTT) to a purple formazan derivative by mitochondrial succinate dehydrogenase in viable cells. Cell lines were cultured in RPMI-1640 medium with 10% fetal bovine serum. Antibiotics added were 100 units/ml penicillin and 100µg/ml streptomycin at 37 C in a 5% Co2 incubator. The cell lines were seedes in a 96-well plate at a density of 1.0x10^4 cells/well.
(§5) At 37 C for 48 h under 5% CO2. After incubation the cells were treated with different concentration of compounds and incubated for 24 h. After 24 h of drug treatment, 20 µl of MTT solution at […]
(§6) 5mg/ml was added and incubated for 4 h. Dimethyl sulfoxide (DMSO) in volume of 100 µl is added into each well to dissolve the purple formazan formed. The colorimetric assay is measured and recorded at absorbance of 570 nm using a plate reader (EXL 800, USA). The relative cell viability in percentage was calculated as (A570 of treated samples/A570 of untreated sample) X 100.

[2] = test system: Human lung fibroblast normal cell line (WI38); experiment: cells; assay type: cell-based
Description: as §1, §2, §3, §4, §5, §6

[3] = test system: Epdermoid Carcinoma (HEP2); assay type: cell-based, human; conditions: among all compounds
Description: as §2, §3
as §4, with “Antibiotics added were 100 units/ml penicillin and 100µg/ml streptomycin at 37 C in a 5% Co2 incubator. The cell lines were seedes in a 96-well plate at a density of 1.0x10^4 cells/well.” left out
5mg/ml was added and incubated for 4 h. […] The colorimetric assay is measured and recorded at absorbance of 570 nm using a plate reader (EXL 800, USA). The relative cell viability in percentage was calculated as (A570 of treated samples/A570 of untreated sample) X 100.

[4] = HCT-116, Figure 4, unit inferred, read-out: IC50 against colon carcinoma cells (HCT-116)
[5] = WI-38, Figure 6, unit inferred, read-out: IC50 against normal cell line (WI38)
[6] = HCT-116, read-out: IC50 against colon carcinoma cells (HCT-116)
[7] = WI-38, read-out: IC50 against normal cell line (WI38)

Row | Compound | IC50 [1, 4] | IC50 [2, 5] | melting point | relative activity for colon carcinoma cells (HCT-116), in words [1] | IC50 [1, 6] | IC50 [2, 7] | relative activity for Epdermoid Carcinoma (HEP2), in words [3]
1 | CCOP(=O)(OCC)C(Nc1cc(-c2ccccc2)nn1-c1ccc([N+](=O)[O-])cc1[N+](=O)[O-])c1ccc(N(C)C)cc1 (stereo not drawn) [Compound 2f, Diethyl{(1-(2,4-dinitrophenyl)-3-phenyl-1H-pyrazol-5-ylamino)(4-N,Ndimethylaminophenyl)} methyl phosphonate] | 37.8 µM | 65.1 µM | 244 to 246 °C |  |  |  | 
2 | CCOP(=O)(OCC)C(Nc1cc(-c2ccc([N+](=O)[O-])cc2)nn1-c1ccccc1)c1ccc([N+](=O)[O-])cc1 (stereo not drawn) [Compound 2d, Diethyl{(3-(4-nitrophenyl)-1-phenyl-1H-pyrazol-5-ylamino)(4-nitrophenyl)}methylphosphonate] | 19.9 µM | 41.9 µM | 234 to 235 °C | strongest activity |  |  | 
3 | CCOP(=O)(OCC)C(Nc1cc(-c2ccc([N+](=O)[O-])cc2)nn1-c1ccccc1)c1cccc(O)c1 (stereo not drawn) [Compound 2b, Diethyl{(3-(4-nitrophenyl)-1-phenyl-1H-pyrazol-5-ylamino)(3-hydroxyphenyl)}methylphosphonate] | 84.5 µM | 55.7 µM | 252 to 254 °C |  |  |  | 
4 | O=[N+]([O-])c1cccc(C(Nc2cc(-c3ccccc3)nn2-c2ccc([N+](=O)[O-])cc2[N+](=O)[O-])P(=O)(Oc2ccccc2)Oc2ccccc2)c1 (stereo not drawn) [Compound 4c, Diphenyl{(1-(2,4-dinitrophenyl)-3-phenyl-1H-pyrazol-5-ylamino)(3-nitrophenyl)}methyl phosphonate] |  |  |  |  | 51.3 µM | > 100 µM | 
5 | CCOP(=O)(OCC)C(Nc1cc(-c2ccc([N+](=O)[O-])cc2)nn1-c1ccccc1)c1ccc(Cl)cc1 (stereo not drawn) [Compound 2e, Diethyl{(3-(4-nitrophenyl)-1-phenyl-1H-pyrazol-5-ylamino)(4-chlorophenyl)}methylphosphonate] | 57.3 µM | 86.3 µM | 298 to 300 °C |  |  |  | 
6 | O=[N+]([O-])c1ccc(-c2cc(NC(c3ccc([N+](=O)[O-])cc3)P(=O)(Oc3ccccc3)Oc3ccccc3)n(-c3ccccc3)n2)cc1 (stereo not drawn) [Compound 4b, Diphenyl{(3-(4-nitrophenyl)-1-phenyl-1H-pyrazol-5-ylamino)(4-nitrophenyl)}methylphosphonate] |  |  | 167 to 168 °C | strongest activity | 15.1 µM | 62.8 µM | highest activity
7 | CCOP(=O)(OCC)C(Nc1cc(-c2ccc([N+](=O)[O-])cc2)nn1-c1ccccc1)c1cccc(Cl)c1 (stereo not drawn) [Compound 2c, Diethyl{(3-(4-nitrophenyl)-1-phenyl-1H-pyrazol-5-ylamino)(3-chlorophenyl)}methylphosphonate] | 45.7 µM | 29.7 µM | 150 to 152 °C |  |  |  | 
8 | CN(C)c1ccc(C(Nc2cc(-c3ccccc3)nn2-c2ccc([N+](=O)[O-])cc2[N+](=O)[O-])P(=O)(Oc2ccccc2)Oc2ccccc2)cc1 (stereo not drawn) [Compound 4d, Diphenyl{(1-(2,4-dinitrophenyl)-3-phenyl-1H-pyrazol-5-ylamino)(4-N,N-dimethylaminophenyl)} methyl phosphonate] |  |  | 212 to 214 °C |  | 26.1 µM | 78.3 µM | highest activity
9 | O=[N+]([O-])c1ccc(-c2cc(NC(c3cccc(O)c3)P(=O)(Oc3ccccc3)Oc3ccccc3)n(-c3ccccc3)n2)cc1 (stereo not drawn) [Compound 4a, Diphenyl{(3-(4-nitrophenyl)-1-phenyl-1H-pyrazol-5-ylamino)(3-hydroxyphenyl)}methylphosphonate] |  |  | 266 to 268 °C |  | 73.2 µM | 47.1 µM | 

From publication PMC10482913, “A new class of anticancer activity with computational studies for a novel bioactive aminophosphonates based on pyrazole moiety” (Scientific Reports, 2023)
